From US20060189602A1, “Pyridazinone compounds” (Anadys Pharmaceuticals, Inc., priority 2004, published 2006)

The compounds below were run against HCV NS5B polymerase (Hepatitis C virus genotype 1b, UniProt P26663) (assay: NS5B Polymerase Inhibition Assay). Conditions: 50 nM enzyme, [α-33P]GTP, oligo (rG13)/poly rC, 75 min at 28° C.
Assay type: biochemical
Method: NS5B Polymerase Inhibition Assay
Compounds were tested for HCV polymerase inhibition. Assays were performed in a 96-well streptavidin-coated FlashPlate using 50 nM enzyme, 0.5 μCi of [α-^33P]GTP, 0.63 μM GTP, and 250 nM 5′biotinylated oligo (rG13)/poly rC in 20 mM Tris-HCl, pH 7.5, 5 mM MgCl2, 20 mM NaCl, 5 mM dithiothreitol, and 0.1 g/L BSA. The reaction was stopped by aspiration after 75 min at 28° C. and the plate was washed several times. After washing, incorporated radioactivity was counted using a Microbeta scintillation counter.

HCV NS5B polymerase, sequence (P26663 2420-3010): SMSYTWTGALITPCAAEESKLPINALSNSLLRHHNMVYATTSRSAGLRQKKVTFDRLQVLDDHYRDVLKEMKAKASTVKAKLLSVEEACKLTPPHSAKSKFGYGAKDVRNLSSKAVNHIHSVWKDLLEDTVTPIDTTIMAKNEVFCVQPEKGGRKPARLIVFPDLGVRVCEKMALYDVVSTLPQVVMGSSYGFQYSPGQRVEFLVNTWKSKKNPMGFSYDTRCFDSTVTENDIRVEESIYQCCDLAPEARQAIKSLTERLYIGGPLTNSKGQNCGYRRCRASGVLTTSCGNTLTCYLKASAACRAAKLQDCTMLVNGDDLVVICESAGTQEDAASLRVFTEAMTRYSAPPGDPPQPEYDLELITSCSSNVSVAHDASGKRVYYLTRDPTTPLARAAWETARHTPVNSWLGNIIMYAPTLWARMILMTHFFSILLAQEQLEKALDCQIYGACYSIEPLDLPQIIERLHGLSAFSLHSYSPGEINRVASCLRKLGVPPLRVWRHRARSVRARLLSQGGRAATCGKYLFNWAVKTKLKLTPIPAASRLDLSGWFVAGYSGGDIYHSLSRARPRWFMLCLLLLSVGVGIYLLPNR

| IC50 [µM] | SMILES |
| --- | --- |
| < 10 | COc1ccc2c(c1)S(=O)(=O)NC(c1c(O)c(-c3nccs3)nn(CCC(C)C)c1=O)=N2 [Compound 54, 5-Hydroxy-4-(7-methoxy-1,1-dioxo-1,2-dihydro-1λ^6-ben-zo[1,2,4]thiadiazin-3-yl)-2-(3-methyl-butyl)-6-thiazol-2-yl-2H-py-ridazin-3-one] |
| < 10 | COc1ccc2c(c1)S(=O)(=O)NC(c1c(O)c(-c3cccs3)nn(CCC(C)(C)C)c1=O)=N2 [Compound 56, 2-(3,3-Dimethyl-butyl)-5-hydroxy-4-(7-methoxy-1,1-dioxo-1,2-di-hydro-1λ^6-benzo[1,2,4]thiadiazin-3-yl)-6-thiophen-2-yl-2H-py-ridazin-3-one] |
| < 10 | Cc1ccc(-c2nn(Cc3ccccc3)c(=O)c(C3=Nc4ccccc4S(=O)(=O)N3)c2O)s1 [Compound 59, 2-Benzyl-4-(1,1-dioxo-1,2-dihydro-1λ^6-ben-zo[1,2,4]thiadiazin-3-yl)-5-hydroxy-6-(5-methyl-thiophen-2-yl)-2H-py-ridazin-3-one] |
| < 10 | Cc1ccc(-c2nn(CCC(C)(C)C)c(=O)c(C3=NS(=O)(=O)c4cc(OCC(N)=O)ccc4N3)c2O)s1 [Compound 64, 2-{3-[2-(3,3-Dimethyl-butyl)-5-hydroxy-6-(5-methyl-thiophen-2-yl)-3-ox-o-2,3-dihydro-pyridazin-4-yl]-1,1-dioxo-1,2-di-hydro-1λ^6-benzo[1,2,4]thiadiazin-7-yloxy}-acetamide] |
| < 10 | Cc1ccsc1-c1nn(CCC(C)C)c(=O)c(C2=NS(=O)(=O)c3cc(OCC(N)=O)ccc3N2)c1O [Compound 65, 2-{3-[5-Hydroxy-2-(3-methyl-butyl)-6-(3-methyl-thiophen-2-yl)-3-ox-o-2,3-dihydro-pyridazin-4-yl]-1,1-dioxo-1,2-dihydro-1λ^6-ben-zo[1,2,4]thiadiazin-7-yloxy}-acetamide] |
| < 10 | CC(C)(C)CCn1nc(C(C)(C)C)c(O)c(C2=Nc3ccc(O)cc3S(=O)(=O)N2)c1=O [Compound 67, 6-tert-Butyl-2-(3,3-dimethyl-butyl)-5-hydroxy-4-(7-hydroxy-1,1-di-oxo-1,2-dihydro-1λ^6-benzo[1,2,4]thiadiazin-3-yl)-2H-py-ridazin-3-one] |

Second part, the compound before the results:

| SMILES | IC50 [µM] |
| --- | --- |
| CCCc1nn(CCC(C)C)c(=O)c(C2=Nc3ccc(O)cc3S(=O)(=O)N2)c1O [Compound 46, 5-Hydroxy-4-(7-hydroxy-1,1-dioxo-1,2-dihydro-1λ^6-ben-zo[1,2,4]thiadiazin-3-yl)-2-(3-methyl-butyl)-6-propyl-2H-py-ridazin-3-one] | < 10 |
| CCCCc1nn(CCCC)c(=O)c(C2=Nc3ccc(OCC(N)=O)cc3S(=O)(=O)N2)c1O [Compound 47, 2-[3-(2,6-Dibutyl-5-hydroxy-3-oxo-2,3-dihydro-pyridazin-4-yl)-1,1-di-oxo-1,2-dihydro-1λ^6-benzo[1,2,4]thiadiazin-7-yl-oxy]-acetamide] | < 10 |
| CCCc1nn(CCC(C)C)c(=O)c(C2=NS(=O)(=O)c3cc(OCC(N)=O)ccc3N2)c1O [Compound 49, 2-{3-[5-Hydroxy-2-(3-methyl-butyl)-3-oxo-6-propyl-2,3-di-hydro-pyridazin-4-yl]-1,1-dioxo-1,2-dihydro-1λ^6-ben-zo[1,2,4]thiadiazin-7-yloxy}-acetamide] | < 10 |
| CC(C)CCn1nc(-c2cccs2)c(O)c(C2=NS(=O)(=O)c3sc(Cl)cc3N2)c1=O [Compound 50, 4-(2-Chloro-7,7-dioxo-4,7-dihydro-1,7λ^6-dithia-4,6-diaza-inden-5-yl)-5-hydroxy-2-(3-methyl-butyl)-6-thiophen-2-yl-2H-py-ridazin-3-one] | 10 to 50 |
| CC(C)CCc1nn(CCC(C)C)c(=O)c(C2=NS(=O)(=O)c3cc(OCC(N)=O)ccc3N2)c1O [Compound 51, 2-{3-[5-Hydroxy-2,6-bis-(3-methyl-butyl)-3-oxo-2,3-dihydro-py-ridazin-4-yl]-1,1-dioxo-1,2-dihydro-1λ^6-ben-zo[1,2,4]thiadiazin-7-yloxy}-acetamide] | < 10 |
| CC(C)c1nn(CCC(C)(C)C)c(=O)c(C2=Nc3ccccc3S(=O)(=O)N2)c1O [Compound 53, 2-(3,3-Dimethyl-butyl)-4-(1,1-dioxo-1,2-dihydro-1λ^6-ben-zo[1,2,4]thiadiazin-3-yl)-5-hydroxy-6-isopropyl-2H-py-ridazin-3-one] | < 10 |
| CC(C)c1nn(CCC2CC2)c(=O)c(C2=Nc3ccccc3S(=O)(=O)N2)c1O [Compound 57, 2-(2-Cyclopropyl-ethyl)-4-(1,1-dioxo-1,2-dihydro-1λ^6-ben-zo[1,2,4]thiadiazin-3-yl)-5-hydroxy-6-isopropyl-2H-py-ridazin-3-one] | < 10 |
| COc1ccc2c(c1)S(=O)(=O)NC(c1c(O)c(CCC#N)nn(CCC(C)(C)C)c1=O)=N2 [Compound 58, 3-[1-(3,3-Dimethyl-butyl)-4-hydroxy-5-(7-methoxy-1,1-dioxo-1,2-di-hydro-1λ^6-benzo[1,2,4]thiadiazin-3-yl)-6-oxo-1,6-di-hydro-pyridazin-3-yl]-propionitrile] | 10 to 50 |
| COc1ccc2c(c1)S(=O)(=O)NC(c1c(O)c(-c3sccc3C)nn(CCC(C)C)c1=O)=N2 [Compound 61, 5-Hydroxy-4-(7-methoxy-1,1-dioxo-1,2-dihydro-1λ^6-ben-zo[1,2,4]thiadiazin-3-yl)-2-(3-methyl-butyl)-6-(3-methyl-thio-phen-2-yl)-2H-pyridazin-3-one] | < 10 |
| CC(C)c1nn(CC2CCC2)c(=O)c(C2=Nc3ccccc3S(=O)(=O)N2)c1O [Compound 63, 2-Cyclobutylmethyl-4-(1,1-dioxo-1,2-dihydro-1λ^6-ben-zo[1,2,4]thiadiazin-3-yl)-5-hydroxy-6-isopropyl-2H-py-ridazin-3-one] | 10 to 50 |
| COc1ccc2c(c1)S(=O)(=O)NC(c1c(O)c(C(C)(C)C)nn(CCC(C)(C)C)c1=O)=N2 [Compound 66, 6-tert-Butyl-2-(3,3-dimethyl-butyl)-5-hydroxy-4-(7-methoxy-1,1-di-oxo-1,2-dihydro-1λ^6-benzo[1,2,4]thiadiazin-3-yl)-2H-py-ridazin-3-one] | 10 to 50 |
